The test system of experiment [1] is Mycobacterium tuberculosis H37Rv. As to the kind of experiment: Intracellular M. tuberculosis CFU count in infected bone marrow-derived macrophages after treatment with extract or anti-tuberculosis agent. The experiment is classed as cell-based. To be noted: C57BL/6 mouse BMDM, H37Rv MOI=1, anti-tuberculosis agent 100 ng/mL, 48 hours; FIG. 2.
Experiment [2] shares this test system. Description: MIC and FIC of Philadelphus tenuifolius leaf extract alone or combined with an anti-tuberculosis agent in Rv-infected BMDM. Type of experiment: cell-based. The conditions noted are these: Rv-infected mouse BMDM, 48 hours; for MIC combination, RIF (antibiotic component): MIC of the antibiotic when combined with Philadelphus tenuifolius leaf extract; for MIC alone, Antibiotics: MIC = lowest concentration inhibiting more than 99% of bacterial growth.

From US20260256859A1, “COMPOSITION FOR PREVENTING, AMELIORATING, OR TREATING TUBERCULOSIS COMPRISING EXTRACT OF PHILADELPHUS SP. PLANT AS ACTIVE INGREDIENT” (priority 2023, published 2026) come the findings set out here.

With `CC[C@@H](CO)NCCN[C@@H](CC)CO` [ethambutol], the “number of intracellular M. tuberculosis in mouse bone marrow-derived macrophages (CFU) vs infection control (Rv)” value in experiment [1] is “statistically significantly reduced”. In addition, in experiment [2], the “MIC combination, RIF (antibiotic component)” value (shortened to “MIC combination, RIF”) amounted to 0.3 µg/mL and the “MIC alone, Antibiotics” value turned out to be 4 µg/mL.

Regarding `NNC(=O)c1ccncc1` [isoniazid], the “number of intracellular M. tuberculosis in mouse bone marrow-derived macrophages (CFU) vs infection control (Rv)” value in experiment [1] was “statistically significantly reduced”. Moreover, in experiment [2], the “MIC combination, RIF” value worked out at 0.03 µg/mL and the “MIC alone, Antibiotics” value was 0.1 µg/mL.

In the case of `CO[C@H]1/C=C/O[C@@]2(C)Oc3c(C)c(O)c4c(O)c(c(/C=N/N5CCN(C)CC5)c(O)c4c3C2=O)NC(=O)/C(C)=C\C=C\[C@H](C)[C@H](O)[C@@H](C)[C@@H](O)[C@@H](C)[C@H](OC(C)=O)[C@@H]1C` [rifampicin], in experiment [2], the “MIC combination, RIF” value was 0.03 µg/mL and the “MIC alone, Antibiotics” value was 0.1 µg/mL.
